Columns and labels:
immobilized BiP = biological target: T1, immobilized BiP (Homo sapiens, UniProt P11021); assay: Depletion of solutions from misfolded proteins using immobilized BiP (ELISA); assay type: binding; settings: BiP coated at 5 μg/ml
T1 construct: The human BiP gene except the signal peptide encoding region was obtained from Geneart (Germany); linker […]; made in house; host or cells: HEK 293E cells, transient transfection, PABC674 vector; secreted into the medium
Description: We analysed whether recombinant human BiP with a C-terminal FLAG-tag and His-tag can be applied for depleting solutions from misfolded proteins comprising crossbeta structure.
BiP was coated at a concentration of 5 μg/ml at Greiner Microlon high-binding plates, for 1 h at room temperature with motion. As a negative control buffer was coated. ELISAs were performed essentially as described before. […] All binding buffers were PBS/0.1% (v/v) Tween20. Binding of dOVA was assayed using monoclonal anti-chicken egg albumin antibody (Sigma, A6075, 1:10.000 dilution) and RAMPO (Dako Cytomation, P0260, 1:3.000). […] Background signals obtained with buffer coated wells that were subsequently overlayed with protein solutions (see below), were subtracted from signals obtained with wells with coated BiP.

HUVECs = assay: FACS: binding of misfolded proteins and BiP to HUVECs; assay type: cell-based, human
Description: For these experiments HUVECs were isolated by trypsinization. After trypsinization cells were collected in RPMI 1640, containing P/S and 10% FCS and centrifuged. After centrifugation cells were resuspended in RPMI medium without FCS at a concentration of 1.250.000 cells/250 μl. Individual 4-ml tubes (polypropylene, Greiner), containing 250 μl cell suspensions were made. To each tube 75 μl of a sample, containing either, • a. buffer (PBS) only, or • b. 25 μl PBS+50 μl BiP (1.16 mg/ml), or • c. 50 μl buffer with 25 μl oxLDL (1 mg/ml), or • d. 74 μl buffer with 1 μl BSA-AGE (25 mg/ml), or • e. 24 μl PBS+1 μl BSA-AGE (25 mg/ml)+50 μl BiP (1.16 mg/ml), or • f. 25 μl oxLDL (1 mg/ml)+50 μl BiP (1.16 mg/ml), • g. 1.6 μl dIgIV-65 (20 mg/ml)+73.4 μl PBS • h. […]
was added. Subsequently, the cells were incubated with the sample for approximately 30 minutes at 4° C. Next, cells were pelleted by centrifugation and the supernatant was discarded. Cells were washed subsequently with FACS buffer (PBS/0.5% BSA/0.05% m/v NaN3) at 4° C. and resuspended in FACS-buffer at approximately 1*10^5 cells/100 μl for subsequent analysis. Cell death was determined by adding 3 μl 7-aminoactinomycin D (7AAD) solution (prepared according to standard procedures). Binding of sample BSA-AGE (see elsewhere in this application for preparation details) was determined with anti-AGE monoclonal antibody 4B5 (10 μg/ml) and, after washing, with goat anti-mouse PE secondary antibodies (Jackson Immunoresearch, West Grove, USA). Binding of BSA-AGE was also assessed using the intrinsic fluorescence of BSA-AGE in the PE channel. Binding of oxidized LDL (oxLDL, oxidized for 56% following incubation with FeSO4; specific enhancement of Thioflavin T fluorescence) was determined with rabbit serum with anti-ApoB100 polyclonal antibodies at a concentration of 160 μg/ml and, after washing the cells, with FITC-labelled goat anti-rabbit antibodies (1:200, Jackson). Binding of dIgIV-65 was assessed by using anti-Human IgG antibody. BiP binding was determined using the earlier mentioned anti-FLAG antibody (M2, Sigma-Aldrich).

[1] = tested on: human monocyte-derived dendritic cells; assay: FACS: binding of misfolded proteins and BiP to human monocyte-derived dendritic cells; assay type: cell-based
Source text: In vitro generation of peripheral blood human monocyte-derived dendritic cells, and analyses for binding of misfolded proteins and BiP
Human DCs are generated from non-proliferating precursors selected from peripheral blood mononuclear cells (PBMCs), essentially by published methods (Sallustro and Lanzavecchia [1994], J. Exp. Med. 179 1109-1118). Relative abundant presence of CD1a, CD32, CD36, CD40, CD54, CD86, HLA-DR and CD206 and relative low content of CD14 positive, CD16 positive, CD64 positive, CD80 positive, CD83 positive and CD163 positive cells serve as a quality measure for the immature DCs. After obtaining the immature DCs upon stimulation with GM-CSF and IL-4, direct binding of misfolded proteins and BiP to the DCs is assessed by incubating 200.000 cells (2*10^6 cells/ml) for 30 minutes at 4° C. under metabolic arrested state, with 1) PBS, 2) 58 μg/ml BiP (830 nM), 4) 250 μg/ml BSA-AGE (3.6 μM), 5) BSA-AGE+BiP, 6) 250 μg/ml oxLDL, 7) oxLDL+BiP, 8) mixture of BiP-binding peptides 6BB8-11, 13 (see Table 5), 125 μg/ml+BiP, and 8) 62.5 μg/ml Aβ16-22, 62.5 μg/ml Aβ25-35+BiP. After the incubation and careful washing of the cells, binding of BiP, BSA-AGE and oxLDL is assessed with FACS, using primary antibodies monoclonal anti-FLAG antibody, monoclonal anti-glycated human fibronectin antibody 4B5 and rabbit serum with anti-human apoliprotein B-100 antibody (Dade Behring, Newark, Del., USA), and the appropriate FITC- or PE-labeled secondary antibody. Mean fluorescence intensity (MFI) ratio's are determined by measuring background fluorescence.

T1 sequence (P11021 19-654): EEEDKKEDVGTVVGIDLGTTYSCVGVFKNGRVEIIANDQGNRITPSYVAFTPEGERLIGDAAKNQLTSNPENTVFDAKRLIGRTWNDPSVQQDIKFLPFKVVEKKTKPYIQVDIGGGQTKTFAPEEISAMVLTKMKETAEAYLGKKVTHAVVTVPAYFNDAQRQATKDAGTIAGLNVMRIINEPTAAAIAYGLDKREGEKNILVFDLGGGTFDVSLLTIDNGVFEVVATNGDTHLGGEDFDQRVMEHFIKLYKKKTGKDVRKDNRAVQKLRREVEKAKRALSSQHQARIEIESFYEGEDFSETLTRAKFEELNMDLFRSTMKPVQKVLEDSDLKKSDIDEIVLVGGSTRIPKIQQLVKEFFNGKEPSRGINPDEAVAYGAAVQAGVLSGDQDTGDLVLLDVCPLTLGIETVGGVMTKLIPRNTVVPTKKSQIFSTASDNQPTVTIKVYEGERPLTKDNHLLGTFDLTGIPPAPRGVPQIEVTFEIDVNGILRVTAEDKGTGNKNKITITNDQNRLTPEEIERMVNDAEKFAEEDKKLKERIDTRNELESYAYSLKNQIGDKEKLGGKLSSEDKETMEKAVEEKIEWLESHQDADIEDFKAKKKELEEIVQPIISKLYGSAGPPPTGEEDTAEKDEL

Row | Substance | Concentration at which binding to immobilized BiP is already maximum (immobilized BiP) [µg/mL] | Extraction from solution by immobilized BiP (immobilized BiP; 1, 10, 100 μg/ml misfolded protein) | Binding of misfolded protein to ECs (MFI ratio) (HUVECs; absence of BiP, 30 minutes at 4° C.) | Binding of misfolded protein to ECs (MFI ratio) (HUVECs; presence of BiP) | Binding to DCs (MFI ratio), Misfolded protein ([1]; FACS, human dendritic cells, detection of the misfolded protein, signal divided by background signal) | Binding of misfolded protein to DCs ([1]; absence of BiP, 250 μg/ml) | Amount of BiP bound to DCs when added together with misfolded protein ([1]; compared to BiP added to DCs alone) | Amount of misfolded protein bound to DCs when added together with BiP ([1]; compared to misfolded protein without BiP)
1 | HbAGE: human haemoglobin glycated with glucose-6-phosphate for 75 weeks | 1 | extracted specifically by BiP to an even higher extent |  |  |  |  |  | 
2 | BSA-AGE |  |  | 13.8 | 10.2 | 4.0 | bind | about doubled | only slightly increased

Source: US20100015126A1, “Methods of Binding of Cross-Beta Structures By Chaperones” (priority 2006, published 2010)
